Results reported in patent publication US20170079966A1, “INHIBITION OF TUMOR CELL INTERACTIONS WITH THE MICROENVIRONMENT RESULTING IN A REDUCTION IN TUMOR GROWTH AND DISEASE PROGRESSION” (Deciphera Pharmaceuticals, LLC, priority 2014, published 2017).
Like-named read-outs stand apart in the source and are kept apart here.

What was measured:
uTIE2 kinase = biological target: T1, uTIE2 kinase (Homo sapiens, UniProt Q02763); assay: Biochemical assay for uTIE2 kinase (pyruvate kinase/lactate dehydrogenase coupled); details: ATP 1.5 mM; rate 5 to 6 h; read-out: IC50, inhibition of uTIE2 kinase
T1 construct: purchased SignalChem
T1 sequence (Q02763 771-1124): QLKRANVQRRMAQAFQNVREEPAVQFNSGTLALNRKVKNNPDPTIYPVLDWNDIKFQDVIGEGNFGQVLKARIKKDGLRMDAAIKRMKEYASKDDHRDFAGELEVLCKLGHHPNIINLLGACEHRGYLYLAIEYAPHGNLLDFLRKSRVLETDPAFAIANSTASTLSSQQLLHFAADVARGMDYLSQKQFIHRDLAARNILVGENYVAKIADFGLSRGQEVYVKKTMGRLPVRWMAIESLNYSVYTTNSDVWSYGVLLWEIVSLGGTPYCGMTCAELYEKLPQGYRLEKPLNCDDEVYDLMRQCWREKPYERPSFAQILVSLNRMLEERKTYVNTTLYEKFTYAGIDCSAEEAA
Protocol: Activity of uTIE2 kinase was determined by following the production of ADP from the kinase reaction through coupling with the pyruvate kinase/lactate dehydrogenase system [Schindler 2000]. In this assay, the oxidation of NADH (thus the decrease at A340 nm) was continuously monitored spectrophotometrically. The reaction mixture (100 μL) contained TIE2 (SignalChem) (5.6 nM), BSA (0.004% (w/v)), polyEY (1.5 mg/ml), MgCl2 (15 mM), DTT (0.5 mM), pyruvate kinase (4 units), lactate dehydrogenase (7 units), phosphoenol pyruvate (1 mM), and NADH (0.28 mM) and ATP (1.5 mM) in 90 mM Tris buffer containing 0.2% octyl-glucoside and 1% DMSO, pH 7.5. […] The absorption at 340 nm was monitored continuously for 6 hours at 30° C. on a plate reader (BioTek). The reaction rate was calculated using the 5 to 6 h time frame. Percent inhibition was obtained by comparison of reaction rate with that of a control (i.e. with no test compound).

[1] = test system: macrophage-mediated intravasation of human breast cancer cells (MDA-MB 231-GFP); assay: In vitro intravasation-directed transendothelial migration (iTEM) assay; format: cell-based; details: BAC1.2F5 macrophages, HUVEC monolayer
Protocol: In vitro intravasation-directed transendothelial migration (iTEM) assay protocol. The iTEM assay was performed in a Transwell two-chamber apparatus. The Transwell was prepared so that tumor cell transendothelial migration of tumor cells was in the intravasation direction (from subluminal side to luminal side of the endothelium). We define this as the iTEM assay. To prepare the endothelial monolayer, the underside of each Transwell was coated with 50 μl of Matrigel (2.5 μg/ml; Invitrogen). About 100,000 HUVEC cells were plated on the Matrigel-coated underside of the Transwells. Transwells were then flipped onto a 24-well plate containing 200 μl of α-MEM (minimum essential medium) supplemented with 10% fetal bovine serum (FBS)+3000 U of CSF-1 and incubated until the endothelium formed impermeable monolayers. […] Once impermeable by these criteria, the Transwell assay was used for iTEM studies. All the assays were run in the presence of BAC1.2F5 murine macrophage cell line and MDA-MB 231-GFP human breast cancer cells. Transwells were imaged using a Leica SP5 confocal microscope using a 60×1.4 numerical aperture objective and processed using ImageJ [National Institutes of Health (NIH)] and IMAMS programs. Quantitation was performed by counting the number of tumor cells that had crossed the endothelium within the same field of view (60×, 10 random fields).

[2] = test system: HMVEC capillary tube formation; assay: HMVEC capillary tube formation; format: cell-based; details: Homo sapiens
Protocol: Growth factor reduced Matrigel gel solution (BD Biosciences, San Jose, Calif.) was dispensed using pre-chilled tips into each well of a pre-chilled 96-well black, clear bottom, tissue-culture treated plate. The plate was incubated at 37° C. for 1 h to allow the matrix to form a gel. […] The cell/Compound 1 suspensions were then transferred to the Matrigel plate wells and incubated overnight. The final concentration of DMSO in the assay was 0.5%. The next day, cells were stained with Calcein-AM dye (Life Technologies). Images obtained via fluorescent microscopy were analyzed for tube length using ImagePro Analyzer (Media Cybernetics, Rockville, Md.) with a macro to automatically detect and measure tube formation.

GSC11 glioblastoma cells = assay: GSC11 glioma stem cell patient-derived xenograft model (tumor volume, immunohistochemistry); format: in vivo, mice
Protocol: For the in vivo experiments, 4- to 6-week-old female nude mice that were strictly inbred at The University of Texas MD Anderson Cancer Center and maintained in the MD Anderson Veterinary in accordance with institutional guidelines were used. For the in vivo experiments, GSC11 (5×10^5) or GSC17 (5×10^4) glioblastoma cells were implanted intracranially into nude mice. […] Control mice for these cohorts were treated with phosphate-buffered saline by i.p. injection and/or with 0.4% HPMC vehicle by oral gavage. One cohort of 10 mice per group were treated continuously and followed for survival. A separate cohort of 9 mice per group were treated continuously until the designated time point, and the tumors from these mice were extracted at 3, 4, 5 weeks in GSC11 xenograft mice model and at 3.5, 4.5, 5.5 weeks in GSC17 xenograft mice model after the start of treatment.
When the mice treated for the designated time period developed signs and symptoms of advanced tumors, they were euthanized, and their brains were removed, fixed in 4% formaldehyde for 24 hours, and embedded in paraffin. The tissues were then sectioned serially (4 μm) and stained with hematoxylin and eosin (Sigma-Aldrich). Tumor formation and phenotype were determined by histologic analysis of the hematoxylin- and eosin-stained sections. The tumor volume, greatest longitudinal diameter (length), and greatest transverse diameter (width) were measured using an external caliper and Adobe Illustrator software. The tumor volumes were calculated by the following formula: volume=½(length×width^2).
For immunohistochemical analyses, the tissue sections were deparaffinized and subjected to graded rehydration. After blocking the tissue in 5% horse and goat serum and antigen retrieval solution (citrate buffer, pH 6.0), we incubated the tissue sections overnight at 4° C. with primary antibodies against Factor VIII (1:500; A0082, Dako) to assess microvessel formation, vimentin (1:100; M0725, Dako) to assess mesenchymal marker expression, F4/80 (1:50; 123102, BioLegend) to assess monocyte infiltration, nestin (1:300; Ab6142, Abcam) to assess glioma stem cell marker expression, HGF (1:200; LS-B4657, LSBio), and TIE2 (1:50; Santa Cruz Biotechnology) to assess TIE2-expressing monocyte infiltration. Texas red fluorescein isothiocyanate-conjugated secondary antibodies or anti-rat immunoglobulin G antibodies (Invitrogen) were used for 1 hour at room temperature.
All statistical analyses were conducted with the GraphPad 6 (InStat) software for Windows 7. Survival analysis was conducted using the Kaplan-Meier method, and differences in survival between treatment groups were assessed using the log-rank test. All other comparisons were performed using an unpaired two-tailed Student t-test. Summary statistics for continuous data are expressed as the mean±standard error of the mean. P values less than 0.05 were considered statistically significant. The nestin staining was assessed using the Image-Pro Plus system version 7.0 (Media Cybernetics) in ×10 fields of at least three tumor samples per group with three to four different sections per tumor sample.

Description for A375: Mice were implanted subcutaneously and treatment began on Day 8. Treatments ended on Day 36 after four weeks of treatment.

## O=C(Nc1cc(Oc2cc(F)c(NC(=O)C3(C(=O)Nc4ccc(F)cc4)CC3)cc2F)ccn1)C1CC1 [Compound 1, N-(4-(2-(cyclopropanecarboxamido)pyridin-4-yloxy)-2,5-difluorophenyl)-N′-(4-fluorophenyl)cyclopropane-1,1-dicarboxamide]
uTIE2 kinase
  IC50: 7.9 nM
[1]
  IC50: < 10 nM
[2]; 40 ng/mL HGF, read-out: IC50, capillary tube formation upon stimulation with HGF
  IC50: 11 nM
[2]; 100 ng/mL VEGF, read-out: IC50, capillary tube formation upon stimulation with VEGF
  IC50: 58 nM
[2]; 200 ng/mL ANG2, read-out: IC50, capillary tube formation upon stimulation with ANG2
  IC50: 7 nM
GSC11 glioblastoma cells; GSC11, bevacizumab 10 mg/kg i.p. twice per week, Compound 1 10 mg/kg oral twice daily
  Tumor volume at 3 weeks: 1.2±0.5 mm^3
GSC11 glioblastoma cells; GSC11, same dosing
  Tumor volume at 4 weeks: 9.8±2.8 mm^3
  Tumor volume at 5 weeks: 32.3±14.6 mm^3
GSC11 glioblastoma cells; GSC11 model
  Factor VIII-positive area: 1.1±0.5%
GSC11 glioblastoma cells; GSC11 xenograft mouse model
  Nestin-positive area: 17.7±2.7%
GSC11 glioblastoma cells; GSC-11 glioma model
  Mesenchymal tumor marker vimentin / EMT (immunohistochemistry): does not cause elevation of vimentin
GSC11 glioblastoma cells; GSC-11 glioma xenograft model
  Macrophage infiltration into tumor (F4/80 IHC staining): does not result in therapy resistance-mediated increases in macrophage infiltration
A375; 10 mg/kg, orally, BID
  Day 22 % T/C: 47%
  Median tumor growth delay: > 12.4 days
A375; 20 mg/kg, orally, QD
  Day 22 % T/C: 33%
  Tumor growth delay: 15.7 days
A375; mouse, in vivo
  CD31+ microvessel area in tumor sections at the end of study: significant decreases
